“Also recorded” adds a separate entry of the source.
Key:
oestrogen receptor (ER) = target: T1, oestrogen receptor (ER) (Homo sapiens, UniProt P03372); assay: Anti-oestrogenic action in MVLN cells (inhibition of estradiol-induced luciferase); format: cell-based; conditions: inhibition of estradiol-induced luciferase signal, value of Ex. 44 is a mean value, read-out: Antioestrogenic action in vitro: MVLN transactivation antagonism IC50
T1 construct: These MVLN cells express, along with the functional oestrogen receptor (ER), a reporter construct; endogenous in cells; host or cells: MVLN cells (MCF7 derivative carrying a luciferase reporter construct)
T1 sequence (P03372 1-595): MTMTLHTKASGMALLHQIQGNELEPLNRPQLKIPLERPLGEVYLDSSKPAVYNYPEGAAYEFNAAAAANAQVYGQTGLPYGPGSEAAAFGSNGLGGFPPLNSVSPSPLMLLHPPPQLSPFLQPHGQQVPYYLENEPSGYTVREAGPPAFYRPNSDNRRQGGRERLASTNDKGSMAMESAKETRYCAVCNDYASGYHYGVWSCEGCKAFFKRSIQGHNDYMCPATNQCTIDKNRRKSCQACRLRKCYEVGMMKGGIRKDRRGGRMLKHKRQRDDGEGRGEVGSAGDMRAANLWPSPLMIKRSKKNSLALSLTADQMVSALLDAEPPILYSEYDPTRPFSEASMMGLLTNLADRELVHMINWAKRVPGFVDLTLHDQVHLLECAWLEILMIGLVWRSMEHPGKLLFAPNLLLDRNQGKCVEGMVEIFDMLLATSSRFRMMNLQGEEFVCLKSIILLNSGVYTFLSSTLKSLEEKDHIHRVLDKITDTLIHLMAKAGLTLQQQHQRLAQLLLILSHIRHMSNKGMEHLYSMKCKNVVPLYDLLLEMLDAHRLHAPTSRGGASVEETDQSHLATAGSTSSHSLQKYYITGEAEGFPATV
In short: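 Inhibition of estradiol-driven luciferase expression was measured with compounds co-applied alongside oestrogen. Reporter system: MCF7-derived MVLN cells expressing endogenous functional ER and an ER-responsive luciferase construct.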

uterus [1] = assay: Oestrogenic action - uterus growth test in the infantile rat; format: in vivo; conditions: sc, 72 h, s.c. 3 days, maximum at dose 0.03 mg/kg, relative to E2 0.3 μg/animal, read-out: maximum uterotropic action (% estradiol action) in the dose range from 0.03 to 3 mg/kg
Protocol: Both the uterus and the vagina show a weight increase that is dependent on oestrogenic efficacy, in infantile animals when they are treated with a substance with oestrogenic action. In the uterus, under oestrogenic action there is also proliferation and increase in height of the luminal epithelium.
Immature, intact rats (n=5-6 animals/group; body weight 40-50 g) receive the substance s.c. for 3 days (d1-d3). On day 4 (d4) the animals are killed with CO2. The uteri are removed and weighed. For histological assessment, a piece of uterus, preferably a uterine horn, is fixed in formaldehyde and embedded in paraffin. The stimulation of the organ weights (relative to mg/100 g body weight) and the height of the epithelium are shown as percentage stimulation in comparison with the reference compound 17β-estradiol (E2). (Substitution dose of E2 0.3 μg/animal).

uterus [2] = assay: Anti-uterus growth test in the adult rat; conditions: sc, 72 h; ovariectomized adult rat, s.c. 3 days with 1.5 μg/kg/day 17β-estradiol; inhibition of uterus growth; value of 44 is a mean of two measurements; read-out: anti-oestrogenic activity in vivo in % at a dose of 0.3 mg/kg (rat)
Description: The uterus of oestrogen-substituted rats can be used as a test model for detecting a direct action of substances with anti-oestrogenic properties. The parameter of oestrogenic action is estradiol-induced uterus growth in rats, which is inhibited by simultaneous administration of a substance with anti-oestrogenic action. The experimental animals (n=5-6 animals/group) were ovariectomized before the start of the test, to rule out the influence of endogenous oestrogens. After a phase of 6 to 10 days, the test substances are administered s.c. on 3 consecutive days (d1-d3) in combination with a substitution dose of 1.5 μg/kg/day 17β-estradiol. 17β-estradiol alone serves as positive control, and the excipients serve as negative control. On day 4 (d4) the animals are killed, and the uteri and vaginae are removed and weighed. The organ weights are converted to mg/100 g body weight, then the mean value and the standard deviation are calculated for each dosage. The inhibition of uterus growth induced by 17β-estradiol is shown as percentage inhibition.

[3] = test system: peripheral cholesterol level; assay: Hepatic oestrogenicity in the ovariectomized adult rat (plasma cholesterol); format: in vivo; conditions: ovariectomized adult rats, s.c. daily for 6 days; cholesterol day 0 vs day 8
Description: Substances with oestrogenic action influence the synthesis of various plasma proteins, of coagulation factors and fibrinolytic factors in the liver. […] In the present investigations, lowering of the peripheral cholesterol level is used as a surrogate parameter for analysis of the hepatic oestrogenicity of the claimed pharmacological compounds. Adult ovariectomized rats were, after a pause of 6-10 days, treated daily for 6 days with the substances by subcutaneous application. The plasma cholesterol levels were determined and compared before and after the respective treatment.

[4] = test system: ovarian estradiol synthesis; assay: Stimulation of ovarian oestrogen synthesis (HPG axis) in intact adult rats; format: in vivo, rat; conditions: hormonally intact adult rats, daily for 10 days; quotient of peripheral estradiol values after and before treatment
Description: The clinical use both of pure anti-oestrogens and of various SERMs for the treatment of premenopausal women is limited by their property of stimulating the ovaries through activation of the hypothalamic-pituitary-gonadal axis (HPG axis), which leads to the increase in peripheral estradiol levels (Palomba, S., Orio, F., Jr., Morelli, M., Russo, T., Pellicano, M., Zupi, E., Lombardi, G., Nappi, C., Panici, P. L., and Zullo, F. (2002). Raloxifene administration in premenopausal women with uterine leiomyomas: a pilot study. J Clin Endocrinol Metab 87, 3603-3608). This stimulation of the HPG axis is associated with penetration of the blood-brain barrier and penetration of the brain. To investigate the ovary-stimulating properties of the claimed pharmacological compounds, hormonally intact adult rats were treated with the substances daily for a period of 10 days. The study end point is the quotient of peripheral estradiol values after and before treatment.

endometriosis lesions = assay: Endometriosis model in the rat (autologous transplantation); format: in vivo; conditions: rat
Description: Using intact adult female rats, experimental endometriosis was induced in the autologous transplantation model based on Vernon M. W. and Wilson E. A., 1985 (Fertil Steril. 44(5):684-694). A uterine horn was removed from animals that were exclusively in oestrus, the myometrium was separated from the endometrium and biopsies with dimensions of 4×4 mm were obtained from the endometrial tissue. Two uterine fragments were transplanted onto the inside of the abdominal wall (peritoneum) and two uterine fragments were transplanted onto the mesenterium of the same animal (4 fragments per animal). After 21 days the animals with endometriosis were laparotomized, and the size of the transplants was determined. The animals were treated after laparotomy and then daily in the morning with the stated dosages of the selected claimed substances by subcutaneous administration. Finally, 28 days after the start of treatment (49 days after transplantation), all the animals were laparotomized again and the size of the lesion was measured and was correlated with the size before the start of treatment.

[5] = test system: trabecular bone density and uterus weight; format: in vivo, rat; conditions: adult ovariectomized rats, 56 days; compound 44 oral 1-10 mg/kg, effect already beginning with 1 mg/kg
Protocol: 3-months-old female rats are ovariectomized and immediately after the operation they are treated with the test compound once daily for 56 days. Application is oral in peanut oil/ethanol. The animals are killed on the day after the last application and the tibia and the uteri are removed. The uteri are weighed, fixed and prepared for histological investigations. Bone density is determined ex vivo on prepared long bones by pQCT (peripheral quantitative computed tomography).
Ovariectomy leads to a decrease in density of the trabecular bone in the measured region. By treatment with a compound of general formula I according to the present invention (dosages of 1-10 mg/kg/day) the decline in bone density is prevented or inhibited. Bone density was measured on the proximal tibia.
The bone-protective action in adult ovariectomized female animals (rat) was investigated as described. […] The selected claimed pharmacological example compound 44 was applied orally at dosages from 1-10 mg/kg.

ERα protein = target: T2, ERα protein (Homo sapiens, UniProt P03372); assay: Effect on stability of ERα protein in T47D breast cancer cells (ELISA); format: cell-based; conditions: 24 hours, ER protein by ELISA
T2 construct: These cells express the ER in functional form; endogenous in cells; host or cells: T47D breast cancer cells
T2 sequence (P03372 1-595): T1 sequence (P03372 1-595)
Protocol: As well as inhibition of the transcriptional activity of the ER, anti-oestrogens influence the expression level of the ER in the target tissues through stimulation of the proteolytic degradation of the ER. In comparison with an ER-E2 complex, the ER bound in a complex with the pure anti-oestrogen fulvestrant has a substantially shorter half-life.
The effect of the claimed pharmacological compounds on the stability of the ER was analysed in T47D breast cancer cells (see Table 1, column Standardized ER-destabilization [%]). These cells express the ER in functional form. The cells are incubated for 24 hours with the claimed compounds at a concentration of 1 μM. After lysis of the cells, the content of ER protein was determined by ELISA. […] Compounds with ER content below 30% are classified as destabilizing.
As described, the claimed pharmacological substances were investigated for their action on the stability of the ERα protein (see Table 1).

IC50 (oestrogen receptor (ER)) [nM]	hepatic oestrogenicity: lowering of the peripheral cholesterol level [3]	Stimulation of ovarian oestrogen synthesis: factor at a dose of 3 mg/kg rat [4]	relative ERα content (% ER) (ERα protein) [%]	SMILES	Emax at 0.03 mg/kg (uterus [1]) [%]	inhibition in vivo at 0.3 mg/kg (uterus [2]) [%]	dosage with significant reduction in sizes of lesions (endometriosis lesions; 28 days of treatment, 115 tested 0.1-1 mg/kg, 44 tested 0.3-10 mg/kg) [mg/kg]	reduction of lesion size (endometriosis lesions; s.c. daily, 4 weeks (FIG. 2A, FIG. 2B))	bone-protective action (trabecular bone mass density, tibia) [5]
13	only observed at high dosage	2.7	–	CN(CCCCCCC1=C(c2ccc(F)cc2)CCCc2cc(O)ccc21)CCCS(=O)(=O)CCCC(F)(F)C(F)(F)F [Example 115, 8-(4-fluorophenyl)-9-[6-(methyl{3-[(4,4,5,5,5-pentafluoropentyl)sulphonyl]propyl}amino)hexyl]-6,7-dihydro-5H-benzo[7]annulen-3-ol]	3	50	1	significant dose-dependent reduction of lesion size	–
–	–	–	0	C[C@]12CC[C@@H]3c4ccc(O)cc4C[C@@H](CCCCCCCCC[S+]([O-])CCCC(F)(F)C(F)(F)F)[C@H]3[C@@H]1CC[C@@H]2O (stereo partly shown) [fulvestrant, reference compound]	–	–	–	–	–
9	only observed at high dosage	2.3	–	CN(CCCCCCC1=C(c2ccc(F)cc2)CCCc2cc(O)ccc21)CCC[S+]([O-])CCCC(F)(F)C(F)(F)F (stereo not shown) [Example 118, 8-(4-fluorophenyl)-9-[6-(methyl{3-[(4,4,5,5,5-pentafluoropentyl)sulphinyl]propyl}amino)hexyl]-6,7-dihydro-5H-benzo[7]annulen-3-ol]	8	78	–	–	–

SMILES	IC50 (oestrogen receptor (ER)) [nM]	hepatic oestrogenicity: lowering of the peripheral cholesterol level [3]	Stimulation of ovarian oestrogen synthesis: factor at a dose of 3 mg/kg rat [4]	relative ERα content (% ER) (ERα protein) [%]	Emax at 0.03 mg/kg (uterus [1]) [%]	inhibition in vivo at 0.3 mg/kg (uterus [2]) [%]	dosage with significant reduction in sizes of lesions (endometriosis lesions; 28 days of treatment, 115 tested 0.1-1 mg/kg, 44 tested 0.3-10 mg/kg) [mg/kg]	reduction of lesion size (endometriosis lesions; s.c. daily, 4 weeks (FIG. 2A, FIG. 2B))	bone-protective action (trabecular bone mass density, tibia) [5]
O=C(c1ccc(OCCN2CCCCC2)cc1)c1c(-c2ccc(O)cc2)sc2cc(O)ccc12 [raloxifene, reference compound]	–	hepatic oestrogenicity at all dosages tested; also recorded: marked lowering of the cholesterol level at all dosages	–	–	18	–	–	–	marked bone protective action
